From PMC6389928, “Biomolecular Interaction, Anti-Cancer and Anti-Angiogenic Properties of Cobalt(III) Schiff Base Complexes” (Scientific Reports, 2019) come the findings set out here.

Structures are written as SMILES. Read-outs that look alike come from different tables or passages of the source.

For one experiment, the system named is DNA. Nature of the experiment: Viscosity measurement of DNA. It is filed as binding. To be noted: 30.0 ± 0.2 °C, increasing amounts of compound. The source says: The mode of interaction between DNA and complexes has been further confirmed using viscosity measurements. The intercalation between DNA and metal complex causes lengthening of the DNA helix and increases DNA’s relative viscosity. Ethidium bromide (EB) is a well known DNA intercalator which was used as a standard to make sure our viscosity determination was working properly. […] The increase in relative viscosity follows the DNA-intercalating ability and the order of relative viscosity is EB > 2 > 1.
CD spectra of CT–DNA in the absence and presence of cobalt(III) complexes 1 and 2 were recorded in phosphate buffer. Each sample solution was scanned in the range of 200–320 nm, and final CD spectra were generated after averaging three scans subtracting the buffer background. Viscosity experiments were performed using an Ubbelohde viscometer at a constant temperature (30.0 ± 0.2 °C).

In experiment [1] the test system is A549 cells. Nature of the experiment: Cell cycle analysis by flow cytometry. It is filed as cell-based, Human. To be noted: A549, IC50 concentrations, 24 h, propidium iodide, compared to control. The protocol:
The possible cell cycle arrest was determined by flow cytometer which is used to distinguish and quantify the cells in different phases of the cell cycle. The cells were treated with the complexes 1 and 2 at the respective half maximal inhibitory concentrations. The cells were fixed, stained with propidium iodide and analysed for DNA/cell content as aspects of cell cycle distribution. The DNA histograms and the percentage of cells in each of the phases are given Fig. 5. […] The increase of cell accumulation in sub G0 - G1 phase indicated delay in progression of cell cycle. The cells thus inhibited in division end up in the apoptosis due to sub G0 − G1 check point arrest. […] In as much as apoptosis itself could be induced due to the DNA damage, necrosis is a clear indication of damage caused by the complexes to the cytosol.
Cell cycle analysis: Cell phase distribution was determined by flow cytometry with DNA staining to reveal the total amount of DNA[94]. […] After incubation, the cells were trypsinized, harvested, fixed in 1 mL 80% cold ethanol and incubated at 4 °C for 15 min. […] Cell cycle distribution was analyzed using FACS (fluorescent activated cell sorter) (Becton-Dickinson, Sanjose, CA, USA) with 15 mW, 488 nm argon ion laser. […] The data were acquired and analyzed using Dean-Jett-Fox algorithm.
(In flow cytometry, cells or beads pass a laser one at a time.)

In experiment [2] the test system is A549 cells. To be noted: A549, respective IC50 concentrations, 24 h. The protocol:
AO/EB Staining of A549 cells: The mode of cell death induced by the complexes was deciphered using acridine orange (AO) and ethidium bromide (EB) staining protocol. Cells were cultured in 6 well plates, treated with the complexes and allowed for 24 h. Then the cells were incubated with AO and EB solutions (1 part of 100 μg/mL AO and 1 part of 100 μg/mL of EB in PBS) and examined in a fluorescent microscope (Carl Zeiss, Jena, Germany) using a UV filter (450–490 nm). Three hundred cells per sample were counted in triplicate for each dose point. The cells were scored as viable, apoptotic and necrotic as judged by the staining pattern, nuclear morphology and cytoplasmic integrity. The percentage of apoptotic and necrotic cells were calculated and the morphological changes were also photographed.

Another experiment addresses BSA (Bos taurus, UniProt P02769). To be noted: for Quenching Constant (kq): τ0 assumed 10^−8 s; for ∆G° / ∆H° / ∆S°: BSA binding; for ∆H° / ∆S°: van't Hoff plot 285-299 K. As for the experimental part:
The obtained fluorescence quenching results were analyzed using the Stern-Volmer eqation, F0/F=1+Ksv[Q]kq=Ksv/τ0 where F0 and F are the fluorescence emission intensities of BSA in the absence and presence of complexes 1 and 2. KSV is the Stern-Volmer quenching constant, [Q] is concentration of the complexes 1 and 2, kq is the quenching rate constant of BSA and τ0 is the average lifetime of the emitter in the absence of quencher. The above equation was applied to determine KSV by linear regression of a plot of F0/F against [Q].
Normally, quenching can take place either as dynamic quenching, static quenching or a combination of both mechanisms. Static quenching refers to fluorophore-quencher complex formation in the ground state while dynamic quenching refers to a process in which the fluorophores and the quencher come into contact during the transient existence of the excited state[57],[58]. The plots of F0/F versus [Q]
For the static quenching process, the binding constant (Kb) and the number of binding sites (n) can be determined by the following equation[62] log[(F0−F)]/F=logKb+nlog[Q] where F0 and F are the fluorescence intensities of the emitter in the absence and presence of the quencher, respectively, and [Q] the concentration of the quencher. Thus, a plot of log F0 − F/F versus log [Q] (Fig. 3) was used to determine Kb.
In general, intermolecular interacting forces between a small molecule and a biomacromolecule include hydrogen bonding, van der Waals force, and electrostatic and hydrophobic interactions. The thermodynamic parameters, enthalpy change (ΔH°) and entropy change (ΔS°) of the binding are important for confirming the binding mode. For this reason, these thermodynamic parameters have been calculated using the equation, lnKb=−ΔH°/RT+ΔS°/RΔG°=ΔH°−TΔS°=−RTInKb where Kb is the binding constant at the corresponding temperature, and R is the gas constant. The ΔH° and ΔS° values are calculated from the slope and intercept from plotting ln Kb versus 1/T (Fig. 3).
The concentration of BSA prepared in PBS buffer (pH = 7.4) was determined spectrophotometrically using the extinction coefficient of 43,800 M^−1 cm^−1 at 280 nm[80]. The fluorescence spectra of BSA were recorded at room temperature with an excitation wavelength of BSA at 280 nm and the emission at 350 nm by keeping the concentration of BSA constant (1.35 × 10^−[…]) while increasing the cobalt(III) complex concentration regularly.

BSA, sequence (P02769 25-607): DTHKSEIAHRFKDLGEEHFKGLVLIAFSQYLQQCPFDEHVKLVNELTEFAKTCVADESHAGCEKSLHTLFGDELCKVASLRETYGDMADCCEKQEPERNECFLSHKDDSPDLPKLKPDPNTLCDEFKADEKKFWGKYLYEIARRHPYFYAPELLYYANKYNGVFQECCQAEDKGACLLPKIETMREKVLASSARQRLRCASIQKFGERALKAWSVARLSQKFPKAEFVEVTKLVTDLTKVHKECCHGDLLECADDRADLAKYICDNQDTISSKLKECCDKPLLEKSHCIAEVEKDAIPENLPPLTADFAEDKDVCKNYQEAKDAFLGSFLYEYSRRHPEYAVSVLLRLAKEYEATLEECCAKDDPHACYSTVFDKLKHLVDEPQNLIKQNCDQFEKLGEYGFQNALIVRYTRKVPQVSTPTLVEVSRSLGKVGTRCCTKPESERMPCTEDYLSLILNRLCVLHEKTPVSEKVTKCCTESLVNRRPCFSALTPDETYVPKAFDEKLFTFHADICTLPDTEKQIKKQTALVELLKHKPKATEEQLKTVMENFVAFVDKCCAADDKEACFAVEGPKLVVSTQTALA

Regarding `CCCCCCCCCCCC[NH2+][Co-3]123([NH2+]CCCCCCCCCCCC)[O]c4ccccc4C=[N+]1CC[N+]2=Cc1ccccc1[O]3.[O-][Cl+3]([O-])([O-])[O-]` [Complex 1, trans-[Co(salen)(DA)2](ClO4)], in the experiment with DNA, the “effect on relative viscosity of DNA” value is “the relative viscosity of DNA increased”. Moreover, the “effect on cell cycle distribution” value with A549 cells [1] is “gradual increase in sub G0 − G1 and G2 − M phases”. Further, the “mode of cell death (AO/EB staining)” value with A549 cells [2] was “most of the cells succumbed to apoptosis and a few to necrosis”. Besides, on BSA (285 K), the “Quenching Constant (kq)” value is listed as 1.6763 10^13 M^−1 s^−1 and the “∆G°” value was -6.238 kcal/mol. Further, on BSA (292 K), the “Quenching Constant (kq)” value is given as 1.3531 10^13 M^−1 s^−1 and the “∆G°” value was -6.7008 kcal/mol. For the same compound, on BSA (299 K), the “Quenching Constant (kq)” value is reported as 1.0862 10^13 M^−1 s^−1 and the “∆G°” value is -7.4297 kcal/mol. Moreover, on BSA, the “∆H°” value is “+69.429 kJ mol^−1” and the “∆S°” value was “+335.928 J mol^−1 K^−1”.
Consider `CCCCCCCCCCCC[NH2+][Co-3]123([NH2+]CCCCCCCCCCCC)[O]c4ccccc4C=[N+]1c1ccccc1[N+]2=Cc1ccccc1[O]3.[O-][Cl+3]([O-])([O-])[O-]` [Complex 2, trans-[Co(salophen)(DA)2](ClO4)], for which, in the experiment with DNA, the “effect on relative viscosity of DNA” value is on record as “the relative viscosity of DNA increased”. Moreover, the “effect on cell cycle distribution” value in the experiment with A549 cells [1] is “gradual increase in sub G0 − G1 and G2 − M phases”. In addition, the “mode of cell death (AO/EB staining)” value in the experiment on A549 cells [2] is “most of the cells succumbed to apoptosis and a few to necrosis”. At BSA (285 K), the “Quenching Constant (kq)” value is 1.4802 10^13 M^−1 s^−1 and the “∆G°” value is -5.6506 kcal/mol. On BSA (292 K), the “Quenching Constant (kq)” value is recorded as 1.2245 10^13 M^−1 s^−1 and the “∆G°” value was -6.0217 kcal/mol. Also, at BSA (299 K), the “Quenching Constant (kq)” value is listed as 1.0114 10^13 M^−1 s^−1 and the “∆G°” value was -6.9336 kcal/mol. At BSA, the “∆H°” value is given as “+85.617 kJ mol^−1” and the “∆S°” value is “+383.182 J mol^−1 K^−1”.
